IC50 data for 28 compounds are collected here from patent US20060063785A1, “Substituted pyrazolo[1,5-a] pyrimidines and process for making same” (priority 2004, published 2006).

Read-outs that look alike come from different tables or passages of the source.

By IC50 is commonly meant the concentration that gives 50% inhibition.

The test system of this experiment is 80S14 (p21-deficient) cells. Nature of the experiment: Determination of selectivity of compounds for p21-/- cells: IC50 in 80S14 cells (SRB). In kind it is cell-based, human. The procedure: • 1. 80S14 (p21-deficient) cells were cultured in RPMI 1640 medium (Gibco/Invitrogen Life technologies) supplemented with 10% fetal bovine serum (FBS, Gibco) and 10 μg/ml gentamycin (Gibco). Cells were maintained at 37° C. under 7% CO2. • 2. Cells were plated at 6×10^4/ml (0.2 ml/well; 12,000 cells/well) in 96-well microtiter plates (Falcon or Corning/Costar) and incubated at 37° C. overnight (18-24 hours). • 3. 2-5 μl of the test agent-[200 μg/ml stock in 20% DMSO/20 mM HEPES, pH 7.5 (Gibco)] was added to each well to achieve a final concentration of 2-5 μg/ml. Cells were incubated with the test compounds for 5 days at 37° C. • 4. Surviving cells were fixed with 50 μl 50% trichloroacetic acid (Sigma; 10% final concentration) for 1 hour at 4° C. • 5. Plates were rinsed twice with water (0.3 ml per wash using MRD8 robot), and allowed to dry. • 6. Sulforhodamine B (SRB) (Sigma; 0.4% in 1% acetic acid, 50 μl per well; MRD8 robot) was added and plates kept at room temperature for 10 minutes. • 7. Excess dye was removed by washing with 1% acetic acid (3 times, 0.3 ml per wash; MRD8 robot) and allowed to dry. • 8. The dye was solubilized in Tris base (Sigma; 10 mM, 150 μl per well). Plates were kept at room temperature for 30 minutes to allow the dye to diffuse. • 9. Absorbance was measured at 540 nm. • 10. The percentage of cells surviving drug treatment relative to control wells (no drug) was determined. • 11. The difference in % cell survival between the two cell lines was calculated. • 12. Compounds producing a difference score of >50 were considered to be selective for the p21-deficient cells and were evaluated further. Determination of Selectivity of Compounds for p21−/− Cells: • 1. 80S14 cells were cultured as described above. • 2. Cells were seeded in 96-well microtiter plates at 12,000 cells/well (either 0.15 ml/well of 8×10^4 cells/ml suspension, or 0.2 ml/well of 6×10^4 cells/ml suspension). Plates were incubated at 37° C. overnight (18-24 hours). • 3. Serial dilutions of the test agent were added to each well. Dilutions were prepared either in 40% DMSO/20% methanol/20 mM HEPES, pH 7.5 (Gibco) or directly in growth medium. One of two dose ranges were used: 5 pM to 50 μM or 170 pg/ml to 10 μg/ml. Cells were incubated with the test compounds for 5 days at 37° C. • 4. Surviving cells were fixed with 50 μl 50% trichloroacetic acid (Sigma; 10% final concentration) for 1 hour at 4° C. • 5. Plates were rinsed extensively in water, and allowed to dry. • 6. Sulforhodamine B (Sigma; 0.4% in 1% acetic acid, 70 μl per well) was added and plates kept at room temperature for 10 minutes. • 7. Excess dye was removed by washing 5 times with 1% acetic acid and plates were allowed to dry. • 8. The dye was solubilized in Tris base (Sigma; 10 mM, 150 μl per well). Plates were placed on a titer plate shaker (Lab Line Instruments) for 5 minutes to allow the dye to diffuse. • 9. Absorbance was measured at 560 nm.
10. The drug concentration which inhibits cell proliferation by 50% relative to untreated controls (IC50) was determined from cytotoxicity curves.

The mark [1] stands for this setting: Homo sapiens, 120 h, 80S14 (p21-deficient) cells, 5 days at 37° C., SRB, read-out: IC50 for 80S14.
The mark [2] stands for this setting: 80S14 (p21-deficient) cells, 5 days at 37° C., SRB, read-out: IC50 for 80S14.
Where [3] appears, read: Cellular activity in 80S14 (p21-deficient) cells, SRB, class symbols, read-out: IC50 for 80S14.
Where [4] appears, read: Homo sapiens, Cellular activity in 80S14 (p21-deficient) cells, SRB, class symbols, read-out: IC50 for 80S14.

On to `N[C@H](C(=O)Nc1cccc(-c2ccnc3c(C(=O)c4cccs4)cnn23)c1)C1CCCCC1` [Example 68, (2S)-2-amino-2-cyclohexyl-N-{3-[3-(thien-2-ylcarbonyl)pyrazolo[1,5-a]pyrimidin-7-yl]phenyl}ethanamide], for which the IC50 under setting [1] lay within 1 to 10 µM. For the compound `O=C(CNC(=O)NC1CCCCC1)Nc1cccc(-c2ccnc3c(C(=O)c4cccs4)cnn23)c1` [Example 120, N-2-[(cyclohexylamino)carbonyl]-N-1-{3-[3-(thien-2-ylcarbonyl)pyrazolo[1,5-a]pyrimidin-7-yl]phenyl}glycinamide], the IC50 under setting [2] fell in the range of 1 to 10 µM.

As to `CC12CCC(C(=O)Nc3cccc(-c4ccnc5c(C(=O)c6cccs6)cnn45)c3)(OC1=O)C2(C)C` (stereo not shown) [Example 43], the IC50 under setting [2] is less than 1 µM. On the same count and under the same terms, for `COCCOCC(=O)Nc1cccc(-c2ccnc3c(C(=O)c4cccs4)cnn23)c1` [Example 49, 2-(2-methoxyethoxy)-N-{3-[3-(thien-2-ylcarbonyl)pyrazolo[1,5-a]pyrimidin-7-yl]phenyl} acetamide] the value was 1 to 10 µM.

As to “N,N′-Diethyl-3-[3-(2-thienylcarbonyl)-pyrazolo[1,5-a]pyrimidin-7-yl]-benzamide [Example 181]”, the IC50 under setting [3] was in the range of 10 to 50 µM.

As for `CCCC(Cl)CC(=O)Nc1cccc(-c2ccnc3c(C(=O)c4cccs4)cnn23)c1` (stereo not shown) [Example 121, 3-chloro-N-{3-[3-(thien-2-ylcarbonyl)pyrazolo[1,5-a]pyrimidin-7-yl]phenyl}hexanamide], the IC50 under setting [1] was less than 1 µM.

On to “tert-Butyl 4-[({3-[3-[3-(thien-2-ylcarbonyl)pyrazolo[1,5-a]pyrimidin-7-yl]phenyl}amino)carbonyl]piperidine-1-carboxylate [Example 295]”, for which the IC50 under setting [3] lay within 1 to 10 µM.

As for “3-(3,5-Dimethylphenyl)-7-{3-[2-(2-piperidin-1-ylethyl)-2H-tetrazol-5-yl]phenyl}pyrazolo[1,5-a]pyrimidine [Example 388]”, the IC50 under setting [3] was 1 to 10 µM. In the case of `CCCCCCCCCCC(=O)Nc1cccc(-c2ccnc3c(C(=O)c4cccs4)cnn23)c1` [Example 124, N-{3-[3-(thien-2-ylcarbonyl.)pyrazolo[1,5-a]pyrimidin-7-yl]phenyl}undecanamide], under setting [2], the IC50 is 10 to 50 µM. Regarding `C[C@H](NC(=O)Nc1cccc(-c2ccnc3c(C(=O)c4cccs4)cnn23)c1)c1ccccc1` [Example 9, N-[(1S)-1-phenylethyl]-N′-{3-[3-(thien-2-ylcarbonyl)pyrazolo [1,5-a]pyrimidin-7-yl]phenyl}urea], the IC50 under setting [1] lay within 1 to 10 µM. `N[C@@H](CC1CCCCC1)C(=O)Nc1cccc(-c2ccnc3c(C(=O)c4cccs4)cnn23)c1` [Example 64, 3-cyclohexyl-N-1-{3-[3-(thien-2-ylcarbonyl)pyrazolo[1,5-a]pyrimidin-7-yl]phenyl}-L-alaninamide]: the IC50 under setting [2] lay within 10 to 50 µM.

In the case of `CC[C@H](C)[C@H](N)C(=O)Nc1cccc(-c2ccnc3c(C(=O)c4cccs4)cnn23)c1` [Example 62, N-1-{3-[3-(thien-2-ylcarbonyl)pyrazolo[1,5-a]pyrimidin-7-yl]phenyl}-L-isoleucinamide], the IC50 under setting [2] was 1 to 10 µM. With `O=C(Nc1cccc(-c2ccnc3c(C(=O)c4cccs4)cnn23)c1)NC1CCCCC1` [Example 249, N-Cyclohexyl-N′-{3-[3-(thien-2-ylcarbonyl)pyrazolo[1,5-a]pyrimidin-7-yl]phenyl}urea], the IC50 under setting [4] was less than 1 µM. In the case of `CC(=O)OCC(=O)Nc1cccc(-c2ccnc3c(C(=O)c4cccs4)cnn23)c1` [Example 48, 2-oxo-2-({3-[3-(thien-2-ylcarbonyl)pyrazolo[1,5-a]pyrimidin-7-yl]phenyl}amino)ethyl acetate], the IC50 under setting [1] was in the range of 1 to 10 µM. Take `CC(C)(C)C(=O)NCC(=O)Nc1cccc(-c2ccnc3c(C(=O)c4cccs4)cnn23)c1` [Example 114, 2,2-dimethyl-N-[2-oxo-2-({3-[3-(thien-2-ylcarbonyl)pyrazolo[1,5-a]pyrimidin-7-yl]phenyl}amino)ethyl]propanamide]: under setting [1], the IC50 fell in the range of 1 to 10 µM. Turning to `CC(C)COC(=O)Nc1cccc(-c2ccnc3c(Br)cnn23)c1` [Example 225, Isobutyl 3-(3-bromopyrazolo[1,5-a]pyrimidin-7-vl)phenvlcarbamate], the half-inhibitory concentration (IC50) under setting [3] fell in the range of 10 to 50 µM. Consider `O=C(CNC(=O)C12CC3CC(CC(C3)C1)C2)Nc1cccc(-c2ccnc3c(C(=O)c4cccs4)cnn23)c1` [Example 116, N-[2-oxo-2-({3-[3-(thien-2-ylcarbonyl)pyrazolo[1,5-a]pyrimidin-7-yl]phenyl}amino)ethyl] adamantane-1-carboxamide], for which, under setting [1], the IC50 is 1 to 10 µM. As to `C=C(C)OC(=O)Nc1cccc(-c2ccnc3c(C(=O)c4cccs4)cnn23)c1` [Example 15, isopropenyl3-[3-(thien-2-ylcarbonyl)pyrazolo[1,5-a]pyrimidin-7-yl]phenylcarbamate], the 50% inhibitory concentration (IC50) (Homo sapiens, 80S14, 120 h, read-out: IC50 for 80S14 (μM)) is less than 1 µM. For the compound `CCNC(=O)NCC(=O)Nc1cccc(-c2ccnc3c(C(=O)c4cccs4)cnn23)c1` [Example 119, N-2-[(ethylamino)carbonyl]-N-1-{3-[3-(thien-2-ylcarbonyl)pyrazolo[1,5-a]pyrimidin-7-1yl]phenyl}glycinamide], under setting [2], the IC50 was in the range of 1 to 10 µM. `O=C(c1cccs1)c1cnn2c(-c3cccc(NC(=O)C45CC6CC(CC(C6)C4)C5)c3)ccnc12` [Example 42, N-{3-[3-(thien-2-ylcarbonyl)pyrazolo[1,5-a]pyrimidin-7-yl]phenyl} adamantane-1-carboxamide]: the IC50 under setting [1] was less than 1 µM. On to `CCCCCNC(=O)NCC(=O)Nc1cccc(-c2ccnc3c(C(=O)c4cccs4)cnn23)c1` [Example 118, N-2-[(pentylamino)carbonyl]-N-1-{3-[3-(thien-2-ylcarbonyl)pyrazolo[1,5-A]pyrimidin-7-yl]phenyl}glycinamide], for which the IC50 under setting [2] lay within 10 to 50 µM.

Consider `C#CCCC(=O)Nc1cccc(-c2ccnc3c(C(=O)c4cccs4)cnn23)c1` [Example 45, N-{3-[3-(thien-2-ylcarbonyl)pyrazolo[1,5-a]pyrimidin-7-yl]phenyl}pent-4-ynamide], for which the IC50 under setting [1] is less than 1 µM. As for `O=C(c1cccs1)c1cnn2c(-c3cccc(NC(=O)C(Cl)(Cl)Cl)c3)ccnc12` [Example 38, 2,2,2-trichloro-N-{3-[3-(thien-2-ylcarbonyl)pyrazolo[1,5-a]pyrimidin-7-yl]phenyl} acetamide], under setting [2], the IC50 lay within 1 to 10 µM. Consider `C[C@H](N)C(=O)Nc1cccc(-c2ccnc3c(C(=O)c4cccs4)cnn23)c1` [Example 60, N-1-{3-[3-(thien-2-ylcarbonyl)pyrazolo[1,5-a]pyrimidin-7-yl]phenyl}-L-alaninamide], for which the IC50 under setting [2] is 1 to 10 µM. Take `NCC(=O)Nc1cccc(-c2ccnc3c(C(=O)c4cccs4)cnn23)c1` [Example 59, N-1--{3-[3-(thien-2-ylcarbonyl)pyrazolo[1,5-a]pyrimidin-7-yl]phenyl}glycinamide]: under setting [2], the IC50 was in the range of 10 to 50 µM. Take `CN1CCC(C(=O)Nc2cccc(-c3ccnc4c(C(=O)c5cccs5)cnn34)c2)CC1` [Example 307, 1-Methyl-N-{3-[3-(thien-2-ylcarbonyl)pyrazolo[1,5-a]pyrimidin-7-yl]phenyl}piperidine-4-carboxamide]: the IC50 under setting [4] lay in the range of 10 to 50 µM. On to `O=C(CCc1cccnc1)Nc1cccc(-c2ccnc3c(C(=O)c4cccs4)cnn23)c1` [Example 336, 3-Pyridin-3-yl-N-{3-[3-(thien-2-ylcarbonyl)pyrazolo [1,5-a]pyrimidin-7-yl]phenyl}propanamide], for which the concentration for half-maximal inhibition (IC50) under setting [4] lay within 1 to 10 µM. With `O=C(COc1ccccc1)Nc1cccc(-c2ccnc3c(C(=O)c4cccs4)cnn23)c1` [Example 93, 2-phenoxy-N-{3-[3-(thien-2-ylcarbonyl)pyrazolo[1,5-a]pyrimidin-7-yl]pheriyl}acetamide], the IC50 under setting [2] lay within 1 to 10 µM.
